According to patent publication US5936097A, “4,9-ethano-benzo(F)isoindole derivatives as farnesyl transferase inhibitors” (Rhone-Poulenc Rorer, S.A., priority 1995, dated 1999):

Target: T1, human farnesyl transferase (Homo sapiens, UniProt P49354+P49356)
T1 construct: human farnesyl transferase purified from THP1 cell cultures; endogenous in cells; host or cells: THP1 cell cultures (enzyme purified from the cells)
Assay: inhibition of farnesyl transferase ((3H) farnesyl transfer from (3H) FPP to p21 H-ras)
Format: biochemical
Conditions: not given
Description: Farnesyl transferase activity is determined by the amount of (^3 H) farnesyl transferred from (^3 H) farnesylpyrophosphate [(^3 H) FPP] to the p21 H-ras protein. The standard reaction mixture is composed, for a final volume of […], of 50 mM Tris-HCl, 5 mM MgCl2, 5 mM dithiotreitol, 0.2% octyl b-D-glucopyranoside, 200 picomol p21 H-ras, 4.5 picomol (^3 H) FPP (activity 61000 dpm/picomol).
Reaction is initiated by adding approximately 5 ng of human farnesyl transferase purified from THP1 cell cultures. After incubation for 20 minutes at 37° C. in a microtitration plate containing 96 1-cm^3 wells per plate (Titer Plate®, Beckman), the reaction is stopped by adding 0.4 cm^3 of 0.1% SDS in methanol at 0° C. The mixture is then treated with 0.4 cm^3 of 30% trichloroacetic® acid (TCA) in methanol. The plates are left in ice for 1 hour. The precipitated contents are then retained on Filtermat®, Pharmacia), glass® fibre membranes with the filtration unit (Combi Cell Harvester®, Skatron), and rinsed with 6% trichloroacetic acid in distilled water. The membranes are dried in a microwave oven, then impregnated with scintillation medium by melting of Meltilex® (Pharmacia) under hot air, and lastly counted in cpm in a b-Plate counter® (LKB). Each test is repeated 3 times.
The unit of activity is defined as 1 picomole of (^3 H) FPP transferred to p21 H-ras in 20 minutes.
The percentage inhibition values are obtained by comparison of the tests with and without inhibitor after deduction of blanks, the IC50 values being measured on the basis of the inhibitions obtained with 9 different concentrations using Enzfitter® or Grafit® software.

Row | Structure (SMILES) | IC50
1 | COc1ccccc1[C@H](C)C(=O)N1CC2C3(c4ccccc4)CCC(c4ccccc43)C2(C(=O)O)C1 (single isomer, unassigned) [Example 34] | 590 nM

Same assay, conditions: human farnesyl transferase purified from THP1 cell cultures; p21 H-ras substrate; 20 minutes at 37° C.; 9 concentrations; read-out: in vitro inhibitory activity IC50

Row | Structure (SMILES) | IC50
2 | COc1ccccc1CC(=O)N1C[C@@H]2[C@]3(c4ccccc4)CC[C@@H](c4ccccc43)[C@]2(C(=O)N(C)CC(=O)O)C1 (relative stereo) [Example 49, N-[(3aRS,4SR,9SR,9aRS)-4,9-ethano-2-(2-methoxyphenyl)acetyl-9-phenyl-2,3,3a,4,9,9a-hexahydro-1H-benzo[f]isoindol-3a-yl]carbonyl-N-methylglycine] | 1100 nM
3 | COC(=O)CNC(=O)[C@]12CN(C(=O)Cc3ccccc3OC)C[C@H]1[C@@]1(c3ccccc3)CC[C@@H]2c2ccccc21 (relative stereo) [Example 69, methyl ester of N-[(3aRS,4SR,9SR,9aRS)-4,9-ethano-2-(2-methoxyphenyl)acetyl-9-phenyl-2,3,3a,4,9,9a-hexahydro-1H-benzo[f]isoindol-3a-yl]carbonylglycine] | 9100 nM
4 | C/C=C(/C(=O)N1C[C@H]2[C@@]3(c4ccccc4)CC[C@H](c4ccccc43)[C@@]2(C(=O)OC)C1)c1ccccc1OC (relative stereo) [Example 77, methyl ester of (3aRS,4SR,9SR,9aRS)-4,9-ethano-2-[2(E)-(2-methoxyphenyl)-2-butenoyl]-9-phenyl-2,3,3a,4,9,9a-hexahydro-1H-benzo[f]isoindole-3a-carboxylic acid] | 6700 nM
5 | C=C(C(=O)N1C[C@H]2[C@@]3(c4ccccc4)CC[C@H](c4ccccc43)[C@@]2(C(=O)N[C@H](C(=O)O)c2ccccc2)C1)c1ccccc1OC [Example 81, N-[(3aS,4R,9R,9aS)-4,9-ethano-2-[(2-methoxy-phenyl)prop-2-en-1-oyl]-9-phenyl-2,3,3a,4,9,9a-hexahydro-1H-benzo[f]isoindol-3a-ylcarboxamide]-(S)-phenylglycine] | 50 nM
6 | C=C(C(=O)N1C[C@H]2[C@@]3(c4ccccc4)CC[C@H](c4ccccc43)[C@@]2(C(=O)NCc2ccc(C(F)(F)F)cc2)C1)c1ccccc1OC [Example 92, (3aS,4R,9R,9aS)-N-[4-trifluorobenzyl]-[4,9-ethano-2-(2-methoxyphenyl)prop-2-en-1-oyl]-9-phenyl-2,3,3a,4,9,9a-hexahydro-1H-benzo[f]isoindole-3a-carboxamide] | 4800 nM
7 | C=C(C(=O)N1C[C@H]2[C@@]3(c4ccccc4)CC[C@H](c4ccccc43)[C@@]2(C(=O)NCc2ccccn2)C1)c1ccccc1OC [Example 93, (3aS,4R,9R,9aS)-N-[(2-pyridyl)-methyl]-4,9-ethano-2-[(2-methoxyphenyl)prop-2-en-1-oyl]-9-phenyl-2,3,3a,4,9,9a-hexahydro-1H-benzo[f]isoindole-3a-carboxamide] | 450 nM
8 | C=C(C(=O)N1C[C@H]2[C@@]3(c4ccccc4)CC[C@H](c4ccccc43)[C@@]2(C(=O)O)C1)c1ccccc1OC [Example 39, (3aS,4R,9R,9aS)-4,9-ethano-2-[2-(2-methoxyphenyl)prop-2-en-1-oyl]-9-phenyl-1,2,3,3a,9,9a-hexahydro-1H-benzo[f]isoindole-3a-carboxylic acid] | 50 nM
9 | O=C(Cc1c[nH]c2ccc(Br)cc12)N1C[C@@H]2[C@]3(c4ccccc4)CC[C@@H](c4ccccc43)[C@]2(C(=O)O)C1 (relative stereo) [Example 35, (3aRS, 4SR, 9SR, 9aRS)-4,9-ethano-2-(5-bromo-3-indolyl)acetyl-9-phenyl-2,3,3a,4,9,9a-hexahydro-1H-benzo [f]isoindole-3a-carboxylic acid] | 2150 nM
10 | CC(C)Oc1ccccc1CC(=O)N1C[C@@H]2[C@]3(c4ccccc4)CC[C@@H](c4ccccc43)[C@]2(C(=O)O)C1 (relative stereo) [Example 40, (3aRS,4SR,9SR,9aRS)-4,9-ethano-2-(2-isopropyl-oxyphenyl)acetyl-9-phenyl-2,3,3a,4,9,9a-hexahydro-1H-benzo[f]isoindole-3a-carboxylic acid] | 2950 nM
11 | COc1ccc(CSSCc2ccc(OC)c(CC(=O)N3CC4C5(c6ccccc6)CCC(c6ccccc65)C4(C(=O)O)C3)c2)cc1CC(=O)N1CC2C3(c4ccccc4)CCC(c4ccccc43)C2(C(=O)O)C1 (racemic) [Example 37, disulphide of (3aRS, 4SR, 9SR, 9aRS)-4,9-ethano-2-(2-methoxy-5-(mercaptomethyl)-phenyl)acetyl-9-phenyl-2,3,3a,4,9,9a-hexahydro-1H-benzo[f]isoindole-3a-carboxylic acid] | 7400 nM
12 | COc1ccccc1CC(=O)N1C[C@H]2[C@@]3(c4ccccc4)CC[C@H](c4ccccc43)[C@@]2(C(=O)NC(CC(=O)O)C(=O)O)C1 (stereo partly drawn) [Example 6, N-[(3aRS, 4SR, 9SR, 9aRS)-4,9-ethano-2-(2-methoxyphenyl)acetyl-9-phenyl-2,3,3a,4,9,9a-hexahydro-1H-benzo[f]isoindolyl-3a-carbonyl]aspartic acid] | 1100 nM
13 | COc1ccccc1CC(=O)N1C[C@@H]2[C@]3(c4ccccc4)CC[C@@H](c4ccccc43)[C@]2(C(=O)NOCc2ccccc2)C1 (racemic) [Example 45, (3aRS,4SR,9SR,9aRS)-N-benzyloxy-4,9-ethano-2-(2-methoxyphenylacetyl)-9-phenyl-2,3,3a,4,9,9a-hexahydro-1H-benzo[f]isoindole-3a-carboxamide] | 1270 nM
14 | COc1ccccc1CC(=O)N1C[C@H]2[C@@]3(c4ccccc4)CC[C@H](c4ccccc43)[C@@]2(CP(=O)(O)O)C1 (relative stereo) [Example 23] | 2600 nM
15 | C=C(C(=O)N1CC2C3(c4ccccc4)CCC(c4ccccc43)C2(C(=O)N[C@H](C)c2ccccc2)C1)c1ccccc1OC (single isomer, unassigned) [Example 9] | 190 nM
16 | C=C(C(=O)N1C[C@H]2[C@@]3(c4ccccc4)CC[C@H](c4ccccc43)[C@@]2(C(=O)NC(C#N)c2ccccc2)C1)c1ccccc1OC (stereo partly drawn) [Example 87, (3aS,4R,9R,9aS)-N-[1-(R,S)-1-cyano-1-phenylmethyl]-4,9-ethano-2-[(2-methoxyphenyl)prop-2-en-1-oyl]-9-phenyl-2,3,3a,4,9,9a-hexahydro-1H-benzo[f]isoindole-3a-carboxamide] | 250 nM
17 | COc1ccccc1CC(=O)N1C[C@H]2[C@@]3(c4ccccc4)CC[C@H](c4ccccc43)[C@@]2(NC=O)C1 (relative stereo) [Example 11, (3aRS, 4SR, 9SR, 9aRS)-3a-formylamino-4,9-ethano-2-(2-methoxyphenyl)acetyl-9-phenyl-2,3,3a,4,9,9a-hexahydro-1H-benzo[f]isoindole] | 6950 nM
18 | C=C(C(=O)N1C[C@H]2[C@@]3(c4ccccc4)CC[C@H](c4ccccc43)[C@@]2(C(=O)NCc2ccccc2OC)C1)c1ccccc1OC [Example 82] | 210 nM
19 | C=C(C(=O)N1C[C@H]2[C@@]3(c4ccccc4)CC[C@H](c4ccccc43)[C@@]2(C(=O)NCc2ccco2)C1)c1ccccc1OC [Example 94, (3aS,4R,9R,9aS)-N-[(2-furyl)-methyl]-4,9-ethano-2-[(2-methoxyphenyl)prop-2-en-1-oyl]-9-phenyl-2,3,3a,4,9,9a-hexahydro-1H-benzo[f]isoindole-3a-carboxamide] | 430 nM
20 | C=C(C(=O)N1C[C@H]2[C@@]3(c4ccccc4)CC[C@H](c4ccccc43)[C@@]2(C(=O)NC2CCc3ccccc32)C1)c1ccccc1OC (stereo partly drawn) [Example 84, (3aS,4R,9R,9aS)-N-[(R,S)-1-indanyl]-4,9-ethano-2-[(2-methoxyphenyl)prop-2-en-1-oyl]-9-phenyl-2,3,3a,4,9,9a-hexahydro-1H-benzo[f]isoindole-3a-carboxamide] | 330 nM
